The text below walks through data of patent US6660300B1, “Method of use of a biphasic controlled release delivery system for high solubility pharmaceuticals and method” (Bristol-Myers Squibb Co., priority 1998, dated 2003).

Data set [1] in a line: compaction susceptibility.
A short description of data set [2]: hygroscopicity at 95% relative humidity/25° C.
For data set [3] the following is noted: cited from earlier work.

Structures can show the parent of a compound that is named as a salt.

For `CN(C)C(=N)NC(=N)N` [metformin (2:1) succinate, Metformin (2:1) Succinate], in data set [1], the compaction susceptibility result is given as “low”. In addition, the “hygroscopicity, moisture uptake” value in data set [2] (at 30 minutes) was “less than 1%”.
As for `CN(C)C(=N)N=C(N)N` [metformin], the “area under the plasma concentration-time profile, jejunum compared with ileum” value in data set [3] (drug perfused into jejunum versus ileum) is reported as 2.5 fold. Besides, the drug in plasma result in data set [3] (drug perfused into the colon) is given as “not detectable”.
For `CN(C)C(=N)N=C(N)N` [metformin (2:1) fumarate, Metformin (2:1) Fumarate], the compaction susceptibility entry in data set [1] is recorded as “low”. Further, in data set [2] (at 6 hours), the “hygroscopicity, moisture uptake” value is recorded as “less than 7%”.
